Measurements taken from patent US20240158446A1, “CYCLIC COMPOUND HAVING SELECTIVE INHIBITORY ACTION ON KRAS OVER HRAS AND NRAS” (CHUGAI SEIYAKU KABUSHIKI KAISHA, priority 2021, published 2024).
pIC50, pKd: −log10 of the molar value. Where a SMILES comes first, the peptide text is derived from it. Bridges are numbered along the chain shown (N, C = ends). [ ]: non-standard residue; d: D form. The star is where a group is joined. hPhe(3-Cl-4-CF3) = N[C@@H](CCc1ccc(C(F)(F)F)c(Cl)c1)C(=O)O; NPrPhe(4-CF3) = CCCN[C@@H](Cc1ccc(C(F)(F)F)cc1)C(=O)O; 3Oxa8azabicyclo(3.2.1)octane = C1CC2COCC1N2*; NMeGly(cPent) = CN[C@H](C(=O)O)C1CCCC1; cisHyp = O=C(O)[C@@H]1C[C@H](O)CN1; NMeD = CN[C@@H](CC(=O)O)C(=O)O; NMeL = CN[C@@H](CC(C)C)C(=O)O; Oxazolidin(3-yl) = C1CN(*)CO1; Morpholide = C1CN(*)CCO1; Pyrrolidide = C1CCN(*)C1; Ac5c = NC1(C(=O)O)CCCC1; Aze = O=C(O)[C@@H]1CCN1; Abu = CC[C@H](N)C(=O)O; Ac4c = NC1(C(=O)O)CCC1; NEtG = CCNCC(=O)O; Sar = CNCC(=O)O

Columns and labels:
[1] = target: GDP-bound KRAS wild-type protein (Homo sapiens, UniProt P01116); experiment: Binding to KRAS by surface plasmon resonance (SPR), Single Cycle Kinetics; settings: SPR Single Cycle Kinetics, GDP-bound KRAS wild-type protein, 1:1 binding model; read-out: KRAS KD
[2] = target: GDP-bound HRAS wild-type protein (Homo sapiens, UniProt P01112); experiment: Binding to HRAS by surface plasmon resonance (SPR), Single Cycle Kinetics; settings: SPR, GDP-bound HRAS wild-type protein vs GDP-bound KRAS wild-type protein
[3] = target: GDP-bound NRAS wild-type protein (Homo sapiens, UniProt P01111); experiment: Binding to NRAS by surface plasmon resonance (SPR), Single Cycle Kinetics; settings: SPR, GDP-bound NRAS wild-type protein vs GDP-bound KRAS wild-type protein
[4] = test system: human lung cancer strain NCI-H441;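 also: cell proliferation inhibition after four days measured by CellTiter-Glo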

GDP-bound HRAS wild-type protein, sequence (P01112 whole entry): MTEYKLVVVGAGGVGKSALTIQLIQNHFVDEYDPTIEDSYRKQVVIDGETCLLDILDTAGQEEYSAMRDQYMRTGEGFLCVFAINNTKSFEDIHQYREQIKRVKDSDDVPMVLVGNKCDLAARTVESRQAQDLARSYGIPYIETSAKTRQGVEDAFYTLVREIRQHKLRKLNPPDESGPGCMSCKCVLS
GDP-bound NRAS wild-type protein, sequence (P01111 whole entry): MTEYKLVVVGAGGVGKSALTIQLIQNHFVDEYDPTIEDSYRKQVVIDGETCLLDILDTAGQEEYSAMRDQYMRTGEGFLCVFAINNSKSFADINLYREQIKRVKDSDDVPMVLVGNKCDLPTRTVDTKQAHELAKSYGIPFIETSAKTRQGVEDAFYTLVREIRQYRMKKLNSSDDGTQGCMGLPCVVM
GDP-bound KRAS wild-type protein, sequence (P01116 whole entry): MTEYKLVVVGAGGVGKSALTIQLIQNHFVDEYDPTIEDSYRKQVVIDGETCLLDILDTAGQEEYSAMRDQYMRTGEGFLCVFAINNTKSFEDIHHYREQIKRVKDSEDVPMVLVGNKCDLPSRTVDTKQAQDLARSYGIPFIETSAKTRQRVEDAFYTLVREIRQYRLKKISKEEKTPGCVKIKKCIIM

| Structure (SMILES) | pKd [1] | HRAS/KRAS (ratio of KD value for HRAS to KD value for KRAS) [2] | NRAS/KRAS (ratio of KD value for NRAS to KD value for KRAS) [3] | pIC50 [4] | HRAS/KRAS (ratio of KD value with respect to HRAS to KD value with respect to KRAS) [2] | NRAS/KRAS (ratio of KD value with respect to NRAS to KD value with respect to KRAS) [3] |
| --- | --- | --- | --- | --- | --- | --- |
| CCCN1C(=O)CN(C)C(=O)CN(C)C(=O)[C@H]([C@@H](C)CC)NC(=O)[C@H](CC(C)C)N(C)C(=O)C[C@@H](C(=O)N2CCCC2)N(C)C(=O)[C@H](C2CCCC2)N(C)C(=O)C2(CCCC2)NC(=O)[C@@H]2CCCN2C(=O)[C@H](CCc2ccc(C(F)(F)F)c(Cl)c2)NC(=O)CN(C)C(=O)[C@@H]1Cc1ccc(C(F)(F)F)cc1 [PP0170] ([NMeL]I[Sar][Sar][NPrPhe(4-CF3)][Sar][hPhe(3-Cl-4-CF3)]P[Ac5c][NMeGly(cPent)][NMeD]-Pyrrolidide; lactam N-11) | 9.92 | B (a compound having 3 or more and less than 10 is denoted as B) | B (a compound having 3 or more and less than 10 is denoted as B) | 8.28 |  |  |
| CCCN1C(=O)CN(C)C(=O)CN(C)C(=O)[C@H]([C@@H](C)CC)NC(=O)[C@H](CC(C)C)N(C)C(=O)C[C@@H](C(=O)N2C3CCC2COC3)N(C)C(=O)[C@H](C2CCCC2)N(C)C(=O)C2(CCCC2)NC(=O)[C@@H]2CCCN2C(=O)[C@H](CCc2ccc(C(F)(F)F)c(Cl)c2)NC(=O)CN(C)C(=O)[C@@H]1Cc1ccc(C(F)(F)F)cc1 [PP0173] ([NMeL]I[Sar][Sar][NPrPhe(4-CF3)][Sar][hPhe(3-Cl-4-CF3)]P[Ac5c][NMeGly(cPent)][NMeD]-{3Oxa8azabicyclo(3.2.1)octane}; lactam N-11) | 9.17 | C (A compound having a KD ratio of 0.1 or more and less than 3 is denoted as C) | B (a compound having 3 or more and less than 10 is denoted as B) | 7.94 |  |  |
| CCCN1C(=O)CN(C)C(=O)CN(C)C(=O)[C@H]([C@@H](C)CC)NC(=O)[C@H](CC(C)C)N(C)C(=O)C[C@@H](C(=O)N2CCOC2)N(C)C(=O)[C@H](C2CCCC2)N(C)C(=O)C2(CCCC2)NC(=O)[C@@H]2CCCN2C(=O)[C@H](CCc2ccc(C(F)(F)F)c(Cl)c2)NC(=O)CN(C)C(=O)[C@@H]1Cc1ccc(C(F)(F)F)cc1 [PP0174] ([NMeL]I[Sar][Sar][NPrPhe(4-CF3)][Sar][hPhe(3-Cl-4-CF3)]P[Ac5c][NMeGly(cPent)][NMeD]-{Oxazolidin(3-yl)}; lactam N-11) | 9.82 | B (a compound having 3 or more and less than 10 is denoted as B) | B (a compound having 3 or more and less than 10 is denoted as B) | 8.28 |  |  |
| CCCN1C(=O)CN(C)C(=O)CN(C)C(=O)[C@H]([C@@H](C)CC)NC(=O)[C@H](CC(C)C)N(C)C(=O)C[C@@H](C(=O)N2CCOCC2)N(C)C(=O)[C@H](C2CCCC2)N(C)C(=O)C2(CCCC2)NC(=O)[C@@H]2C[C@H](O)CN2C(=O)[C@H](CCc2ccc(C(F)(F)F)c(Cl)c2)NC(=O)CN(C)C(=O)[C@@H]1Cc1ccc(C(F)(F)F)cc1 [PP0240] ([NMeL]I[Sar][Sar][NPrPhe(4-CF3)][Sar][hPhe(3-Cl-4-CF3)][cisHyp][Ac5c][NMeGly(cPent)][NMeD]-Morpholide; lactam N-11) | 10.46 | C (A compound having a KD ratio of 0.1 or more and less than 3 is denoted as C) | B (a compound having 3 or more and less than 10 is denoted as B) | 8.10 |  |  |
| CCCN1C(=O)CN(C)C(=O)CN(C)C(=O)[C@H]([C@@H](C)CC)NC(=O)[C@H](CC(C)C)N(C)C(=O)C[C@@H](C(=O)N2CCOCC2)N(C)C(=O)[C@H](C2CCCC2)N(C)C(=O)C2(CCCC2)NC(=O)CN(C)C(=O)[C@H](CCc2ccc(C(F)(F)F)c(Cl)c2)NC(=O)CN(C)C(=O)[C@@H]1Cc1ccc(C(F)(F)F)cc1 [PP0266] ([NMeL]I[Sar][Sar][NPrPhe(4-CF3)][Sar][hPhe(3-Cl-4-CF3)][Sar][Ac5c][NMeGly(cPent)][NMeD]-Morpholide; lactam N-11) | 9.70 | C (A compound having a KD ratio of 0.1 or more and less than 3 is denoted as C) | B (a compound having 3 or more and less than 10 is denoted as B) | 7.82 |  |  |
| CCCN1C(=O)CN(C)C(=O)CN(CC)C(=O)[C@H](CC)NC(=O)[C@H](CC(C)C)N(C)C(=O)C[C@@H](C(=O)N2CCOCC2)N(C)C(=O)[C@H](C2CCCC2)N(C)C(=O)C2(CCCC2)NC(=O)[C@@H]2CCCN2C(=O)[C@H](CCc2ccc(C(F)(F)F)c(Cl)c2)NC(=O)CN(C)C(=O)[C@@H]1Cc1ccc(C(F)(F)F)cc1 [PP0290] ([NMeL][Abu][NEtG][Sar][NPrPhe(4-CF3)][Sar][hPhe(3-Cl-4-CF3)]P[Ac5c][NMeGly(cPent)][NMeD]-Morpholide; lactam N-11) | 8.32 | C (A compound having a KD ratio of 0.1 or more and less than 3 is denoted as C) | B (a compound having 3 or more and less than 10 is denoted as B) | 6.83 |  |  |
| CCCN1C(=O)CN(C)C(=O)CN(CC)C(=O)[C@H]([C@@H](C)CC)NC(=O)[C@H](CC(C)C)N(C)C(=O)C[C@@H](C(=O)N2CCOCC2)N(C)C(=O)[C@H](C2CCCC2)N(C)C(=O)C2(CCC2)NC(=O)[C@@H]2CCCN2C(=O)[C@H](CCc2ccc(C(F)(F)F)c(Cl)c2)NC(=O)CN(C)C(=O)[C@@H]1Cc1ccc(C(F)(F)F)cc1 [PP0398] ([NMeL]I[NEtG][Sar][NPrPhe(4-CF3)][Sar][hPhe(3-Cl-4-CF3)]P[Ac4c][NMeGly(cPent)][NMeD]-Morpholide; lactam N-11) | 9.32 | C (A compound having a KD ratio of 0.1 or more and less than 3 is denoted as C) | B (a compound having 3 or more and less than 10 is denoted as B) | 8.44 |  |  |
| CCCN1C(=O)[C@@H]2CCN2C(=O)CN(C)C(=O)[C@H]([C@@H](C)CC)NC(=O)[C@H](CC(C)C)N(C)C(=O)C[C@@H](C(=O)N2CCOCC2)N(C)C(=O)[C@H](C2CCCC2)N(C)C(=O)C2(CCC2)NC(=O)[C@@H]2CCCN2C(=O)[C@H](CCc2ccc(C(F)(F)F)c(Cl)c2)NC(=O)CN(C)C(=O)[C@@H]1Cc1ccc(C(F)(F)F)cc1 [PP0407] ([NMeL]I[Sar][Aze][NPrPhe(4-CF3)][Sar][hPhe(3-Cl-4-CF3)]P[Ac4c][NMeGly(cPent)][NMeD]-Morpholide; lactam N-11) | 9.96 | B (a compound having 3 or more and less than 10 is denoted as B) | C (A compound having a KD ratio of 0.1 or more and less than 3 is denoted as C) | 8.12 |  |  |
| CCCN1C(=O)CN(C)C(=O)CN(CC)C(=O)[C@H]([C@@H](C)CC)NC(=O)[C@H](CC(C)C)N(C)C(=O)C[C@@H](C(=O)N(C)C)N(C)C(=O)[C@H](C2CCCC2)N(C)C(=O)C2(CCCC2)NC(=O)[C@@H]2CCCN2C(=O)[C@H](CCc2ccc(C(F)(F)F)c(Cl)c2)NC(=O)CN(C)C(=O)[C@@H]1Cc1ccc(C(F)(F)F)cc1 [PP0423] ([NMeL]I[NEtG][Sar][NPrPhe(4-CF3)][Sar][hPhe(3-Cl-4-CF3)]P[Ac5c][NMeGly(cPent)][NMeD]-NMe2; lactam N-11) | 9.74 |  |  | 8.15 | C (A compound having a KD ratio of 0.1 or more and less than 3 is denoted as C) | B (a compound having 3 or more and less than 10 is denoted as B) |
| CC[C@H](C)[C@@H]1NC(=O)[C@H](CC(C)C)N(C)C(=O)C[C@@H](C(=O)N2CCOCC2)N(C)C(=O)[C@H](C2CCCC2)N(C)C(=O)C2(CCCC2)NC(=O)[C@@H]2[C@@H](O)CCN2C(=O)[C@H](CCc2cc(F)c(C(F)(F)F)c(F)c2)NC(=O)CN(C)C(=O)[C@H](Cc2ccc(C(F)(F)F)cc2)N2CCCC[C@@H](C2=O)N(C)C(=O)CN(C)C1=O [PP0558] | 10.17 |  |  | 7.50 | B (a compound having 3 or more and less than 10 is denoted as B) | B (a compound having 3 or more and less than 10 is denoted as B) |
| CC[C@H](C)[C@@H]1NC(=O)[C@@H]2CCCCCN2C(=O)C[C@@H](C(=O)N2CCOCC2)N(C)C(=O)[C@H](C2CCCC2)N(C)C(=O)C2(CCCC2)NC(=O)[C@@H]2CCCN2C(=O)[C@H](CCc2cc(F)c(C(F)(F)F)c(F)c2)NC(=O)CN(C)C(=O)[C@H](Cc2ccc(C(F)(F)F)cc2)N2CCCC[C@@H](C2=O)N(C)C(=O)CN(C)C1=O [PP0595] | 9.00 |  |  | 7.10 | B (a compound having 3 or more and less than 10 is denoted as B) | C (A compound having a KD ratio of 0.1 or more and less than 3 is denoted as C) |
| CCO[C@@H]1C[C@H]2C(=O)NC3(CCC3)C(=O)N(C)[C@@H](C3CCCC3)C(=O)N(CCC3CCCC3)[C@H](C(=O)N(C)C)CC(=O)N(C)[C@@H](CC)C(=O)N[C@@H]([C@@H](C)CC)C(=O)N(C)CC(=O)N(C)[C@H]3CCCCN(C3=O)[C@@H](Cc3ccc(C(F)(F)F)cc3)C(=O)N(C)CC(=O)N[C@@H](CCc3cc(F)c(C(F)(F)F)c(F)c3)C(=O)N2C1 [PP0646] | 9.85 |  |  | 7.77 | B (a compound having 3 or more and less than 10 is denoted as B) | C (A compound having a KD ratio of 0.1 or more and less than 3 is denoted as C) |
